Literature values in paper PMC7953028 (Journal of Pesticide Science, 2021).

Assays:
DmMet/DmTai complex = DmMet/DmTai complex (Drosophila melanogaster, UniProt O44118)
Sequence of DmMet/DmTai complex (O44118 1-716): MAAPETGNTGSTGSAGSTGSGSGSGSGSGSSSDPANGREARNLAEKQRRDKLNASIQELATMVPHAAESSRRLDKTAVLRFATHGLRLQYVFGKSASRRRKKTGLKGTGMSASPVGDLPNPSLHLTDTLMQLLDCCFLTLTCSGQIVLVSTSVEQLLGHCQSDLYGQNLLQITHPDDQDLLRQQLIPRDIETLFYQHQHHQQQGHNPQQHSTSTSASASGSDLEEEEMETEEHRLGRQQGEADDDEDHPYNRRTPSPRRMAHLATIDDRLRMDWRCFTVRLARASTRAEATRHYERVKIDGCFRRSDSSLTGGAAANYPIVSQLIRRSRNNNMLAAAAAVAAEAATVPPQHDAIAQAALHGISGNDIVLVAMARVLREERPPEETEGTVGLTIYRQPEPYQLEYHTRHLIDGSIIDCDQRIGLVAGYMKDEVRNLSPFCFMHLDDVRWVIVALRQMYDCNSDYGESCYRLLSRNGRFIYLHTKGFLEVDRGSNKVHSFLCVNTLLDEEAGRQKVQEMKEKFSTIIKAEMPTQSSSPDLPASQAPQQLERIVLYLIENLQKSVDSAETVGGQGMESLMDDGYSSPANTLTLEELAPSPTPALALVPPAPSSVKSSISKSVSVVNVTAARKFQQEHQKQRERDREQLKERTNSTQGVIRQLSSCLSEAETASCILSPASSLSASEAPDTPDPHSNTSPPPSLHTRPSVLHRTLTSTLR
Sequence of DmMet/DmTai complex (Q9VLD9 1-2026 partner): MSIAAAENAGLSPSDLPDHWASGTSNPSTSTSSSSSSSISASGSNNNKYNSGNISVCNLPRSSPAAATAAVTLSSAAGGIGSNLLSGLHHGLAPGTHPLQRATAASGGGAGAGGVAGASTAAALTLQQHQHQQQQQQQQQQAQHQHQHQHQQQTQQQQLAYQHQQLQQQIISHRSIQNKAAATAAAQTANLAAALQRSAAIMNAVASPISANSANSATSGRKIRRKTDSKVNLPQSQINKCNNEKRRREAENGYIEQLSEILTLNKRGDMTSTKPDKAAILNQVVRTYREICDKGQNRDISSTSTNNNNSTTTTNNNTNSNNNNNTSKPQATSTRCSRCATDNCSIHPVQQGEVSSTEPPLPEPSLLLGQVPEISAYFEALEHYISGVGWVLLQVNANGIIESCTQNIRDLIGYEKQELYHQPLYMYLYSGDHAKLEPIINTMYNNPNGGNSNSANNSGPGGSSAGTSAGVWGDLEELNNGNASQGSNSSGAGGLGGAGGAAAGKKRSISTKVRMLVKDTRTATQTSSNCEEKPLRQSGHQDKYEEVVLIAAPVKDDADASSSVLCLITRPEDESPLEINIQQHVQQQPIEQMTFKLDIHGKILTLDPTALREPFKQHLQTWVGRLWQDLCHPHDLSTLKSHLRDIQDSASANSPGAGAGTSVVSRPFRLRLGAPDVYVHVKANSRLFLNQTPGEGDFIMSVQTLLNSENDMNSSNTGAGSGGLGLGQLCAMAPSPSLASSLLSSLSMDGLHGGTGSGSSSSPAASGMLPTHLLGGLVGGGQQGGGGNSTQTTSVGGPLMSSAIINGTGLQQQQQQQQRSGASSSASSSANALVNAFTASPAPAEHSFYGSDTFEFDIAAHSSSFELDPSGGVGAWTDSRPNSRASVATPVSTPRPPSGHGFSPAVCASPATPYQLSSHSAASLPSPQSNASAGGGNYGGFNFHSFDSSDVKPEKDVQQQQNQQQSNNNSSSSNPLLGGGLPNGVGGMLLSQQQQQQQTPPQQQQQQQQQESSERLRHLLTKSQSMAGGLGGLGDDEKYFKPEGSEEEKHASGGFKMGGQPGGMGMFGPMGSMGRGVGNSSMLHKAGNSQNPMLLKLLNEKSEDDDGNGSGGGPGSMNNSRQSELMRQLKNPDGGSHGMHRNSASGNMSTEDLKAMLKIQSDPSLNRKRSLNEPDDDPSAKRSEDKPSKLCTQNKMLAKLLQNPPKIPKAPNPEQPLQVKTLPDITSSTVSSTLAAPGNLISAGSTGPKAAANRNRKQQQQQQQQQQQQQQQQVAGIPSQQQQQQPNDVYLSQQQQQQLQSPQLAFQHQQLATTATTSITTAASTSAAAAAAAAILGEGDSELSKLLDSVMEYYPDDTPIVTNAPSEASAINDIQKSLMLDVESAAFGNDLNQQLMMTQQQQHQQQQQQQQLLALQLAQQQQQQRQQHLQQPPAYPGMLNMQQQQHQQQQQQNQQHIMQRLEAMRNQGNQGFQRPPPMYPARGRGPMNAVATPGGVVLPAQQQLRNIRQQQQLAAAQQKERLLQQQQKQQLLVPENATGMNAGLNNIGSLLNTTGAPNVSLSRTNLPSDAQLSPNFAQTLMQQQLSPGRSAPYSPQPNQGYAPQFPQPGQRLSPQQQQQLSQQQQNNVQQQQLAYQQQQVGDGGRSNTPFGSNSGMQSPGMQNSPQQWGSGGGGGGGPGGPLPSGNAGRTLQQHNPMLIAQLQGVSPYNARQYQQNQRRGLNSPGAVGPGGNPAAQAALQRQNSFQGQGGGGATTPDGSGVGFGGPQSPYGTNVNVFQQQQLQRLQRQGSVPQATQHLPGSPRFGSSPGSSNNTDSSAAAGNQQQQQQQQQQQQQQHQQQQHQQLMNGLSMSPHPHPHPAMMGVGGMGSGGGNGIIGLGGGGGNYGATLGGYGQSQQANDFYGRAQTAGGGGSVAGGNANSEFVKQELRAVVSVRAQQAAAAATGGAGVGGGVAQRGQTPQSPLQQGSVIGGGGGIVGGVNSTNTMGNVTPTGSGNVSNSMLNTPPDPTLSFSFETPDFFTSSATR

| activity in reporter system relative to natural JHs (DmMet/DmTai complex) | Compound | log P |
| --- | --- | --- |
| – | COC(C)(C)CCC[C@H](C)C/C=C/C(C)=C/C(=O)OC(C)C (racemic) [methoprene] | 5.00 |
| outperformed natural JHs | c1ccc(Oc2ccc(OCCOc3nccs3)cc2)cc1 [Compound 1, 2-[2-(4-phenoxyphenoxy)ethoxy]thiazole] | – |
| outperformed natural JHs | C(#Cc1ccccn1)COc1ccc(Oc2ccccc2)cc1 [Compound 2, 2-[3-(4-phenoxyphenoxy)-1-propyn-1-yl)pyridine] | – |
